The values that follow come from ChEMBL document CHEMBL5233278, “Recent Advances in the Medicinal Chemistry of Farnesoid X Receptor” (J Med Chem, 2021).

Data set [1] addresses T1, Bile acid receptor (Homo sapiens, UniProt Q96RI1).
T1 sequence (Q96RI1 whole entry): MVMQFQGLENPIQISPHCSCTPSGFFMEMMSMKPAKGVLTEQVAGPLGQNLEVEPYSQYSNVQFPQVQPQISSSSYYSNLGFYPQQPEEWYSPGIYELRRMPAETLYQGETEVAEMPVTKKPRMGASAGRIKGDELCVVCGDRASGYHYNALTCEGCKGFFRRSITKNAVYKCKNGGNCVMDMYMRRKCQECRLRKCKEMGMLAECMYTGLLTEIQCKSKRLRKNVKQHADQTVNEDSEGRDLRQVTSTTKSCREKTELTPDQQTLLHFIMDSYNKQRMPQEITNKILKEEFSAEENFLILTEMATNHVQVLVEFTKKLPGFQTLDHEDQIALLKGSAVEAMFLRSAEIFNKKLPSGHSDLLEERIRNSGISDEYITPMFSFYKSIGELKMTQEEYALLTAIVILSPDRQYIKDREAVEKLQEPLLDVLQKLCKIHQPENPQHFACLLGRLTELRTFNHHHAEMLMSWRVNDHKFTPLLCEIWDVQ
Kind of data set: Agonist activity at FXR (unknown origin).

Data set [2] deals with Voltage-gated inwardly rectifying potassium channel KCNH2 (Homo sapiens, UniProt Q12809). Kind of data set: Inhibition of hERG. It is filed as toxicity. For orientation: Block of hERG is tested as a sign of cardiac risk.
Data set [3] concerns the target T1, Bile acid receptor. Put plainly: Agonist activity at FXR in HEK293T cells by steady-glo luciferase assay. It is filed as cell-based.
For data set [4], the target named is T1, Bile acid receptor. Kind of data set: Agonist activity at FXR (unknown origin) incubated for 180 mins by TR-FRET assay. On the technique in general: In TR-FRET formats the signal depends on donor and acceptor labels being close together.
The target in data set [5] is T1, Bile acid receptor. Kind of data set: Agonist activity at human GST-tagged FXR incubated for 1 hrs by alphascreen assay.
The target of data set [6] is T2, Bifunctional epoxide hydrolase 2 (Homo sapiens, UniProt P34913).
T2 sequence (P34913 whole entry): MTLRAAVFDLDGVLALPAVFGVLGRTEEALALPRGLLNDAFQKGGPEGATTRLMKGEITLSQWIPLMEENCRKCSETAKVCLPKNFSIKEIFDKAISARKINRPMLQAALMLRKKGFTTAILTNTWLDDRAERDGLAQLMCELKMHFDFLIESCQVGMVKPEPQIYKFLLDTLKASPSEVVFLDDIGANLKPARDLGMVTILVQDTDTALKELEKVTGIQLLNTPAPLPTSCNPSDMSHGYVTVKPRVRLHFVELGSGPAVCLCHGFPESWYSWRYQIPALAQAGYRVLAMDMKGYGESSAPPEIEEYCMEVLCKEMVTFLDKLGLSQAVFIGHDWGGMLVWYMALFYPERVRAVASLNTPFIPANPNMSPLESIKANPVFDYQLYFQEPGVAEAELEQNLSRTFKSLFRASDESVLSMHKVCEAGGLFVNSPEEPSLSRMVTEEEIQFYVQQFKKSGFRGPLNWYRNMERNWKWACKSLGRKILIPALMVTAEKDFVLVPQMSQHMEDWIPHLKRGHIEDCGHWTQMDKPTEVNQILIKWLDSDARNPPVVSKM
Kind of data set: Inhibition of sEH (unknown origin).

For data set [7], the target named is T1, Bile acid receptor. Put plainly: Agonist activity at FXR in human HeLa cells incubated for 24 hrs by Dual-Glo luciferase assay. The conditions noted are these: hela. It is filed as cell-based.
The target in data set [8] is Bile acid receptor (Homo sapiens) (UniProt Q96RI1). Put plainly: Agonist activity at FXR in human HepG2 cells at 3 uM relative to control. As to conditions: filed as agonist.
For data set [9] the target is unchanged. Kind of data set: Agonist activity at FXR in human HepG2 cells coexpressing BSEP at 0.3 uM relative to control. The conditions noted are these: filed as agonist.
The target of data set [10] is T1, Bile acid receptor. Put plainly: Agonist activity at FXR in HEK293T cells by lanthascreen TR-FRET assay. It is filed as cell-based.
Data set [11] can be described thus: Oral bioavailability in Sprague-Dawley rat at 5 mg/kg administered via gavage by LC-MS/MS analysis. It is filed as ADME, organism-based. The conditions noted are these: in vivo.

Voltage-gated inwardly rectifying potassium channel KCNH2, sequence (Q12809 whole entry): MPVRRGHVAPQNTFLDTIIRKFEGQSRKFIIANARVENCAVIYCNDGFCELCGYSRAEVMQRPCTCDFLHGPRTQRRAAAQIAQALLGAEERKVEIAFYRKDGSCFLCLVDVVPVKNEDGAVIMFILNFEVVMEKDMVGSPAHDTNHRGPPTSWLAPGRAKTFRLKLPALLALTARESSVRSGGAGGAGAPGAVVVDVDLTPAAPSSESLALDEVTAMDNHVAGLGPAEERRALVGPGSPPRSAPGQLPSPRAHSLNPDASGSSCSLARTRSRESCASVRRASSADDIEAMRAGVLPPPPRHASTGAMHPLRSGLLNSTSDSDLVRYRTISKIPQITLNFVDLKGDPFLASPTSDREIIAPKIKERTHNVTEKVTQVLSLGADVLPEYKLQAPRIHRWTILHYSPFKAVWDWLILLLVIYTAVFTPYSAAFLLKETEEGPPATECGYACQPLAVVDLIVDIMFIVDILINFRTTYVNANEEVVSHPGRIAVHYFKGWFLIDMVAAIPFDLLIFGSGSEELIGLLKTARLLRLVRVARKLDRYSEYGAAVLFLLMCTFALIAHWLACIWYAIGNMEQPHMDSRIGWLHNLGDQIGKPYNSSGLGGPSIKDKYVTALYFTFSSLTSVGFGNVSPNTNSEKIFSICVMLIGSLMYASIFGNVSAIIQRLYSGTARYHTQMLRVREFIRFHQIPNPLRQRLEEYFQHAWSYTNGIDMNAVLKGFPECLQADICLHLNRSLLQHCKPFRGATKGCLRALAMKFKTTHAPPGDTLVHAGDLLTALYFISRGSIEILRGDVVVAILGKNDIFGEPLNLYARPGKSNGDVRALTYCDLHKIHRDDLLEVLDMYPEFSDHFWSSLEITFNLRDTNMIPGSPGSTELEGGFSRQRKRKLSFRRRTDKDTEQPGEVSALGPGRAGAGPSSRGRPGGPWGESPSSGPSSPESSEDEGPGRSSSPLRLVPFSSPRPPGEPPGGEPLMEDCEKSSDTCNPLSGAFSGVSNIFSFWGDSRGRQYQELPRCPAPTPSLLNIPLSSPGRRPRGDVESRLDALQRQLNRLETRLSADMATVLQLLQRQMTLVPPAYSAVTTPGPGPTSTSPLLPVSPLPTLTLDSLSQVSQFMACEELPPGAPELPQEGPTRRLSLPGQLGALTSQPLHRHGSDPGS

`O=C(O)c1ccc(-c2nc(N3[C@@H]4CC[C@H]3C[C@@H](OCc3c(-c5c(Cl)cccc5Cl)noc3C3CC3)C4)no2)cc1F` yielded an EC50 on Bile acid receptor [1] of under 50 nM.

`CCn1nc(C(=O)O)cc1C1CC(c2ccc(OCc3c(-c4c(Cl)cccc4Cl)noc3C3CC3)cc2C)=NO1` (stereo not given): in [2], the IC50 is over 30000 nM. For the same molecule, on Bile acid receptor [3], the response was half-maximal at 23 nM (EC50).

`Cc1cc(NS(=O)(=O)N2[C@@H]3CC[C@H]2C[C@@H](OCc2c(-c4c(Cl)cccc4Cl)noc2C2CC2)C3)ccc1C(=O)O` showed an EC50 at Bile acid receptor [1] of under 50 nM. On to `CS(=O)(=O)NC(=O)c1ccc(N2CCC3(CC2)CC(OCc2c(-c4ccccc4OC(F)(F)F)noc2C2CC2)CO3)nc1` (stereo not given), for which it took 26.9 nM to reach a half-maximal effect at Bile acid receptor [4] (EC50). For the molecule `O=C1CCc2cc(OCc3c(-c4c(Cl)cccc4Cl)noc3C3CC3)ccc2N1c1ncc(O)cc1F`, the EC50 at Bile acid receptor [5] was found to be 9 nM.

For `Cc1cc(OCc2c(-c3c(Cl)cccc3Cl)noc2C2CC2)ccc1C1=NOC(c2cc(C(=O)O)nn2C(C)C)C1` (stereo not given), in data set [2], the IC50 is over 30000 nM.

The molecule `O=C(O)c1ccc2c(c1)CN(C(=O)N1[C@@H]3CC[C@H]1C[C@@H](OCc1c(-c4c(Cl)cccc4Cl)noc1C1CC1)C3)C2` gave an EC50 on Bile acid receptor [3] of 10 nM. `COc1cc(C(=O)O)ccc1Cn1ccc2ccc(NC(=O)c3ccc(C(C)(C)C)cc3)cc21`: in data set [6], inhibition was half-maximal at 1700 nM (IC50). Moreover, the EC50 at Bile acid receptor [7] worked out at 260 nM. Take `Cc1cc(OCc2c(-c3c(Cl)cccc3Cl)noc2C2CC2)ccc1C1=NOC(c2cc(C(=O)O)ccn2)C1` (stereo not given): the IC50 in data set [2] is over 30000 nM.

`Cc1cc(OCc2c(-c3c(Cl)cccc3Cl)noc2C2CC2)ccc1C1=NOC(c2ccc(C(=O)O)nc2)C1` (stereo not given) registered an IC50 in data set [2] of over 30000 nM. The midpoint of the response on Bile acid receptor [3], the EC50, lay at 5 nM.

Take `O=C(O)c1cc(F)c2nc(N3C[C@@H]4CC[C@H]3C[C@@H]4OCc3c(-c4ccccc4OC(F)(F)F)noc3C3CC3)sc2c1`: the Activity in [8] was 125%; in data set [9], 84%. On Bile acid receptor [10], `CCc1onc(-c2c(Cl)cccc2Cl)c1COc1ccc(C2(C)CC2c2ccc(C(=O)O)cc2)c(Cl)c1` (stereo not given) gave an EC50 of under 100 nM. For the molecule `O=C(O)c1ccc(-c2nc(N3[C@@H]4CC[C@H]3C[C@@H](OCc3c(-c5c(Cl)cccc5Cl)noc3C3CC3)C4)no2)cc1`, at Bile acid receptor [1], the EC50 was under 50 nM.

As to `O=C(O)c1ccc2c(c1)Oc1ccc(OCc3c(-c4ccccc4OC(F)(F)F)noc3C3CC3)nc1C1(CC1)C2`, the bioavailability in data set [11] was found to be 71.3%. Turning to `Cc1cc(OCc2c(-c3c(Cl)cccc3Cl)noc2C2CC2)ccc1C1=NOC(c2cccc(C(=O)O)c2)C1` (stereo not given), the IC50 in data set [2] was over 30000 nM. Molecule `O=C(O)CNC(=O)c1ccc(N2CCC3(CC2)CC(OCc2c(-c4ccccc4OC(F)(F)F)noc2C2CC2)CO3)nc1` (stereo not given) yielded an EC50 on Bile acid receptor [4] of 1.7 nM.

`COc1cccc(-c2ccc(NC(=O)C3=C(C(=O)O)CCC3)c(F)c2)c1` [VIDOFLUDIMUS] showed an EC50 at Bile acid receptor [1] of 450 nM. For the molecule `C[C@H]1CC(OCc2c(-c3c(Cl)cccc3Cl)noc2C2CC2)C[C@H](C)N1c1nc2ccc(C(=O)O)cc2s1` (stereo not given in full), the Activity in data set [8] is 88%; in data set [9] it was 100%. For `O=C(O)c1ccc2nc(N3CCC(OCc4c(-c5c(Cl)cccc5Cl)noc4C4CC4)C4CC43)sc2c1` (stereo not given), the Activity in [8] is 125%; in data set [9], 64%.

In general, EC50 refers to the concentration that produces a half-maximal response. A high value points to a need for much substance. The term IC50 denotes the midpoint of a concentration-inhibition curve. Low readings indicate greater potency in that assay, high ones weaker potency in that assay. The term bioavailability denotes the share of a dose that reaches the circulation, judged against a reference dose that is usually intravenous.
